# Measurements published in ChEMBL document CHEMBL1147236, “Semiplenamides A-G, fatty acid amides from a Papua New Guinea collection of the marine cyanobacterium Lyngbya semiplena” (J Nat Prod, 2003).
# System: RBL-2H3
# Settings: Rattus norvegicus
# Description: Activity at AMT in rat RBL-2H3 cells
compound,measurement,value
CCCCC/C=C\C/C=C\C/C=C\C/C=C\CCCC(=O)NCCO,Km,9.3 µM
